# From US11673927B2, “Antitumor agent targeting HGF-regulated tyrosine kinase substrate (HGS)” (TOKYO METROPOLITAN INSTITUTE OF MEDICAL SCIENCE, priority 2018, dated 2023)
# Assays:
# [1] = tested on: COLO 205 cells; experiment: In vivo Xenograft test; set-up: species or system BALB/c Slc-nu/nu nude mice; settings: for tumor growth inhibitory effect compared with OP12-462, OP10-507 and OP10-527: COLO 205 xenograft, same method as Example 2 1.(2), FIGS. 6A to 6C; for tumor growth of COLO 205 cells (tumor volume): nude mice, 5 mg/kg body weight, tail vein, once daily Day 0 to Day 9, versus PBS
# Protocol: COLO 205 cells (1E+6 cells/0.2 ml PBS) were inoculated subcutaneously into the back of BALB/c Slc-nu/nu nude mice (female) (n=5 or 6). The day after 10 days was set as Day 0, and PBS or the test oligopeptides (OP12-462, OP10-507 and OP10-527) (5 mg/kg body weight) was administered as a 0.2 ml PBS solution in the tail vein once daily for 10 days from Day 0 to Day 9. The size of the tumor formed was measured once daily from Day 0. The tumor volume was estimated by measuring the minor axis and major axis of the tumor (tumor volume=(semi-minor axis×semi-minor axis×semi-major axis×π)/6).
# With the same method as in the above “[Example 2] 1. (2)”, the tumor growth inhibitory ability was evaluated for OP10-7, OP10-10 and OP10-11, which are typical examples of conventional HGS/C constituent oligopeptides.
# [2] = tested on: mouse melanoma B16 cells; experiment: Experimental lung metastasis inhibition test; format: in vivo, C57BL/6 mice; settings: B16 cells incubated with 40 nmol oligopeptide 2 hours, tail vein, colonies counted after 28 days, versus vehicle
# Protocol: The metastasis inhibitory effect of OP12-462 on the experimental lung metastasizing ability of mouse melanoma B16 cells was examined.
# First, a PBS solution (0.2 ml PBS) of mouse melanoma B16 cells (1E+5 cells) and the test oligopeptide (OP12-462) (40 nmol) was incubated at 37° C. for 2 hours. After incubation, this solution was administered to C57BL/6 mice (female) in the tail vein. The number of B16 cell metastatic tumor colonies in the mouse lung was counted 28 days after the tail vein administration of B16 cells. The ability of the oligopeptide OP12-462 to inhibit metastasis was quantified as the relative ratio of the number of the tumor colonies treated with the oligopeptide to the number of tumor colonies of B16 cells untreated with the oligopeptide.
# As was in the above “1. (3)”, an experimental lung metastasis inhibition test was conducted on the oligopeptide OP12-462 and the OP12-462 alanine substituted peptides.
# [3] = tested on: B16 cells or COLO 205 cells; experiment: In vitro anchorage-independent growth inhibition test of OP12-462 alanine substituted peptides; format: cell-based; settings: compared with the sample untreated with an oligopeptide (vehicle) or with OP12-462, FIG. 5
# Description: (§1) In the present example, the Ultra-Low Attachment Surface Corning Costar 96 Well Cell Culture Plate 3474 (Corning) was used as an Ultra-Low Attachment Surface (ULAS) plate, and Tissue Culture Treated Corning Costar 96 Well Cell Culture Plate 3595 (Corning) was used as a normal plate.
# (§2) As cells, mouse melanoma B16 cells and human colorectal cancer-derived COLO 205 cells were used, and Cell Counting Kit-8 (Dojindo Laboratories) was used to evaluate cell growth.
# (§3) B16 cells or COLO 205 cells (2E+3 cells/0.2 ml Opti-MEM medium, 5% FBS/well) were seeded in each well of the ULAS plate and normal plate. The test oligopeptides (OP12-462, OP10-507 and OP10-527) (0, 0.16, 0.4, 8 nmol) were each added and cultured at 37° C.
# (§4) After 7 days, 0.1 ml of Cell Counting Kit-8 solution (5-fold PBS diluted solution) was added, and the absorbance A450 nm was immediately measured and set as the TO blank value.
# (§5) After incubating at 37° C. for 2 hours, the absorbance A450 nm was measured again and set as T2. The change=T2−T0 was defined as the anchorage-independent growth activity value or the anchorage-dependent growth activity value. The cell growth activity when adding a test oligopeptide was quantified as the relative ratio to the cell growth activity when no test oligopeptide was added.
# As was in the above “1. […]
# [4] = target: T1, GST-labeled HGS (Human) Recombinant Protein (Homo sapiens, UniProt O14964); experiment: SPR interaction screening with immobilized GST-labeled HGS; format: binding; settings: ProteOn XPR36, GST value as blank
# T1 construct: purchased Abnova
# Protocol: (§6) Specifically, Glutathione S-transferase (GST)-labeled HGS (Human) Recombinant Protein (Abnova), GST-labeled STAM (Human) Recombinant Protein (Abnova), or GST (Abnova) was immobilized on a ProteOn™ GLH sensor chip.
# (§7) The interactions between the HGS/C constituent oligopeptides and these immobilized proteins were measured using the ProteOn™ XPR36 interaction array system (Bio-Rad). Using the GST value as a blank value, the dissociation rate constants (Kd) of the HGS/C-constituent oligopeptides with each of GST-labeled HGS and GST-labeled STAM were measured.
# [5] = target: T2, GST-labeled STAM (Human) Recombinant Protein (Homo sapiens, UniProt Q92783); experiment: SPR interaction screening with immobilized GST-labeled STAM; format: binding; settings: ProteOn XPR36, GST value as blank
# T2 construct: purchased Abnova
# T2 sequence (Q92783 1-540): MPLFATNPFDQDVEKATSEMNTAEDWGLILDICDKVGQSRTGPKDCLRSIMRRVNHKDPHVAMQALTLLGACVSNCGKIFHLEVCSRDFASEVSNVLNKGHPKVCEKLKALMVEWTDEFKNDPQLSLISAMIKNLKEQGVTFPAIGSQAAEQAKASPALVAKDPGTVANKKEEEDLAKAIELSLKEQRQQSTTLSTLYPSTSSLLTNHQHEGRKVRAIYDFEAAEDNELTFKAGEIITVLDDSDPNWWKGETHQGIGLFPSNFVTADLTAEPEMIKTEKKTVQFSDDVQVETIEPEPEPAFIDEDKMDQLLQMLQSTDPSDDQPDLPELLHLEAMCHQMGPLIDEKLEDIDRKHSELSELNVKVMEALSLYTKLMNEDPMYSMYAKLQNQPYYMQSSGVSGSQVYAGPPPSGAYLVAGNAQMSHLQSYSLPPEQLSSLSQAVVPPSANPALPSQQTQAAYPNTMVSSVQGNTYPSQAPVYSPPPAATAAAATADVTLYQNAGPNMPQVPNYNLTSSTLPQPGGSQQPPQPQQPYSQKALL
# Protocol: as §6, §7
# [6] = tested on: mouse melanoma B16 cells; experiment: In vitro anchorage-independent growth inhibition test (ULAS plate), B16; format: cell-based; settings: ULAS plate, 0, 0.16, 0.4, 8 nmol, 7 days, FIG. 2A
# Description: (§8) Cancer cells proliferate in an anchorage-independent manner, and normal cells proliferate in an anchorage-dependent manner.
# as §1, §2, §3, §4, §5
# [7] = tested on: human colorectal cancer-derived COLO 205 cells; experiment: In vitro anchorage-independent growth inhibition test (ULAS plate), COLO 205; format: cell-based; settings: ULAS plate, 0, 0.16, 0.4, 8 nmol, 7 days, FIG. 2B
# Description: as §8, §1, §2, §3, §4, §5
# [8] = tested on: mouse melanoma B16 cells; experiment: In vitro anchorage-dependent growth inhibition test (normal plate), B16; format: cell-based; settings: normal plate, 0, 0.16, 0.4, 8 nmol, 7 days, FIG. 2A
# Description: as §8, §1, §2, §3, §4, §5
# [9] = tested on: human colorectal cancer-derived COLO 205 cells; experiment: In vitro anchorage-dependent growth inhibition test (normal plate), COLO 205; format: cell-based; settings: normal plate, 0, 0.16, 0.4, 8 nmol, 7 days, FIG. 2B
# Description: as §8, §1, §2, §3, §4, §5
# T1 sequence (O14964 whole entry): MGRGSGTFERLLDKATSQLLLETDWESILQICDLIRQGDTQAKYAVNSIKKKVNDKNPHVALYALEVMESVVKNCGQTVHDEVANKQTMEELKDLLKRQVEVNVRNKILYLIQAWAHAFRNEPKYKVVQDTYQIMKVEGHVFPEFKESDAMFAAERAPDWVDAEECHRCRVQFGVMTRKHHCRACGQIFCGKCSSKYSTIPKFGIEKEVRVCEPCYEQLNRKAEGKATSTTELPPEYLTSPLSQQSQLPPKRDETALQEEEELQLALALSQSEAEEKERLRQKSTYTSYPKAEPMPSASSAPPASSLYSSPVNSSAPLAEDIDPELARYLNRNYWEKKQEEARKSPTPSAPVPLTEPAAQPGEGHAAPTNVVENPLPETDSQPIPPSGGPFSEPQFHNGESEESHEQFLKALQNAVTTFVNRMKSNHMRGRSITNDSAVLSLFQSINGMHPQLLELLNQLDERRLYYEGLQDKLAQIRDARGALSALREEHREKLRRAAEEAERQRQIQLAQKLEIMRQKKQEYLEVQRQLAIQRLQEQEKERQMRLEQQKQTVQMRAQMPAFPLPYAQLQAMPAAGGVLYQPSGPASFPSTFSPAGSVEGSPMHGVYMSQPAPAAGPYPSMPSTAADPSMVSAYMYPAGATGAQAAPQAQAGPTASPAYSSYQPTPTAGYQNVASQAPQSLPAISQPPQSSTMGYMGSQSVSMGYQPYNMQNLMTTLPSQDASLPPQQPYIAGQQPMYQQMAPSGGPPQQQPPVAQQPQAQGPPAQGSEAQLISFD
Sequence,"tumor growth inhibitory effect compared with OP12-462, OP10-507 and OP10-527 [1]",tumor growth of COLO 205 cells (tumor volume) [1],experimental lung metastasizing ability of mouse melanoma B16 cells (number of lung tumor colonies) [2],"interaction with HGS, dissociation rate constant (Kd) as index [4]","interaction with STAM, dissociation rate constant (Kd) as index [5]",anchorage-independent growth activity [6],anchorage-independent growth activity [7],anchorage-dependent growth activity [8],anchorage-dependent growth activity [9],further results
"ALSALREEHR [OP10-7, conventional HGS/C constituent oligopeptide]",remarkably lower,a tumor growth inhibitory effect was observed,–,–,–,–,–,–,–,–
ERALYYEGLQDK [OP12-462-A3],–,–,remarkably inhibited,–,–,–,–,–,–,in vitro anchorage-independent growth [3]: equally to or more than OP12-462
ERRAYYEGLQDK [OP12-462-A4],–,–,remarkably inhibited,–,–,–,–,–,–,–
ERRLYYEGAQDK [OP12-462-A9],–,–,remarkably inhibited,–,–,–,–,–,–,–
ERRLYYEGLQDK [OP12-462],–,statistically significantly inhibited,remarkably inhibited,enhanced interaction,enhanced interaction,strongly inhibited,strongly inhibited,did not inhibit at all or hardly inhibited,did not inhibit at all or hardly inhibited,–
"EYLEVQRQLA [OP10-11, conventional HGS/C constituent oligopeptide]",remarkably lower,a tumor growth inhibitory effect was observed,–,–,–,–,–,–,–,–
"KLEIMRQKKQ [OP10-10, conventional HGS/C constituent oligopeptide]",remarkably lower,a tumor growth inhibitory effect was observed,–,–,–,–,–,–,–,–
QIQLAQKLEI [OP10-507],–,statistically significantly inhibited,–,strong interaction,strong interaction,strongly inhibited,strongly inhibited,did not inhibit at all or hardly inhibited,did not inhibit at all or hardly inhibited,–
RRLYYEGLQD [OP10-463],–,–,–,strong interaction,strong interaction,–,–,–,–,–
VQRQLAIQRL [OP10-527],–,statistically significantly inhibited,–,strong interaction,strong interaction,strongly inhibited,strongly inhibited,did not inhibit at all or hardly inhibited,did not inhibit at all or hardly inhibited,–
